Patent publication US20140081017A1, “Histone Deacetylase Inhibitors for Enhancing Activity of Antifungal Agents” (METHYLGENE INC., priority 2012, published 2014)
In brackets after ≈: the same amount, converted by molar mass. Where two headings read alike, the source gives them in different places.

Assays:
[1] = tested on: C. glabrata; details: based on a prior study / previously observed; cited from earlier work
[2] = tested on: C. glabrata; experiment: Checkerboard FIC assay in combination with fluconazole (MIC alone and in combination, FICI); assay type: cell-based, Candida glabrata; details: for MIC: Nakaseomyces glabratus; for FICI of combination resulting in fluconazole MIC of: 2 ug/mL / FICI of combination resulting in fluconazole MIC of: 4 ug/mL / FICI of combination resulting in fluconazole MIC of: 8 ug/mL: FICI calculated using a fluconazole MIC of 16 μg/mL; for FICI of combination resulting in fluconazole MIC of: 2 ug/mL (value in parenthesis) / FICI of combination resulting in fluconazole MIC of: 4 ug/mL (value in parenthesis) / FICI of combination resulting in fluconazole MIC of: 8 ug/mL (value in parenthesis): FICI using a fluconazole MIC of 128 μg/mL; for Multiple of compound MIC to synergize fluconazole MIC to 2 ug/mL / Multiple of compound MIC to synergize fluconazole MIC to 4 ug/mL / Multiple of compound MIC to synergize fluconazole MIC to 8 ug/mL: concentration in combination as multiple of the compound's MIC alone; for Multiple of compound MIC to synergize fluconazole MIC to 2 ug/mL: fluconazole MIC 2 ug/mL; for Multiple of compound MIC to synergize fluconazole MIC to 4 ug/mL: fluconazole MIC 4 ug/mL; for Multiple of compound MIC to synergize fluconazole MIC to 8 ug/mL: fluconazole MIC 8 ug/mL; for Concentration of Methylgene compound to synergize fluconazole MIC to 2 ug/mL / Concentration of Methylgene compound to synergize fluconazole MIC to 4 ug/mL / Concentration of Methylgene compound to synergize fluconazole MIC to 8 ug/mL: in combination with fluconazole; for Concentration of Methylgene compound to synergize fluconazole MIC to 2 ug/mL: fluconazole MIC lowered to 2 ug/mL; for Concentration of Methylgene compound to synergize fluconazole MIC to 4 ug/mL: fluconazole MIC lowered to 4 ug/mL; for Concentration of Methylgene compound to synergize fluconazole MIC to 8 ug/mL: fluconazole MIC lowered to 8 ug/mL
Procedure, shortened: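 C. glabrata was tested by CLSI broth microdilution checkerboard, crossing 2-fold dilutions of compound with 2-fold dilutions of fluconazole. The medium was RPMI with 0.165 M MOPS at pH 7.0, inoculated from a 0.5 McFarland suspension diluted 1:100, then incubated about 48 h at 35 °C. Single-agent MICs gave the FIC and FICI values.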

[3] = tested on: Candida parapsilosis; experiment: Minimal Inhibitory Concentration (MIC) assay, broth microdilution per CLSI; assay type: cell-based; details: Lodderomyces parapsilosis, read-out: Minimum Inhibitory Concentrations against Yeast Isolates, Candida parapsilosis;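 note: two read times 24 hr and 48 hr of incubation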
Procedure, shortened: (§1)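 CLSI broth microdilution in RPMI with 0.165 M MOPS, pH 7.0, inoculum from 0.5 McFarland suspension diluted 1:100; compounds in DMSO. Incubation at 35°C for about 24-48 hr; MIC is lowest concentration without visible growth, fluconazole at prominent decrease in growth.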

[4] = tested on: Candida glabrata; experiment: as above; assay type: cell-based; details: Nakaseomyces glabratus, read-out: Minimum Inhibitory Concentrations against Yeast Isolates, Candida glabrata;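 note: two read times 24 hr and 48 hr of incubation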
Procedure, shortened: as §1

[5] = tested on: Candida albicans; experiment: as above; assay type: cell-based; details: Candida albicans, read-out: Minimum Inhibitory Concentrations against Yeast Isolates, Candida albicans
Procedure, shortened: as §1

[6] = tested on: Candida albicans; details: 48 hr; range not explained; cited from earlier work;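 for Minimum Inhibitory Concentrations against Yeast Isolates, Candida albicans: two read times 24 hr and 48 hr of incubation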
[7] = tested on: Candida parapsilosis; details: range not explained, cited from earlier work
[8] = 24 hr reading (first value of cell 24 hr/48 hr)
[9] = 48 hr reading (second value of cell 24 hr/48 hr)
[10] = MIC of the example compound alone against C. glabrata in the checkerboard assay, approximately 48 hr, read-out: Methylgene MIC
[11] = test compound alone, C. glabrata, approx. 48 hr at 35° C., read-out: Compound MIC

SMILES	MIC [3, 8]	MIC [3, 9]	MIC [4, 8]	MIC [4, 9]	MIC [5, 8]	MIC [5, 9]	FICI of combination resulting in fluconazole MIC of: 2 ug/mL ([2]; C. glabrata)	FICI of combination resulting in fluconazole MIC of: 4 ug/mL ([2]; C. glabrata)	FICI of combination resulting in fluconazole MIC of: 8 ug/mL ([2]; C. glabrata)	FICI of combination resulting in fluconazole MIC of: 2 ug/mL (value in parenthesis) ([2]; C. glabrata)	FICI of combination resulting in fluconazole MIC of: 4 ug/mL (value in parenthesis) ([2]; C. glabrata)	FICI of combination resulting in fluconazole MIC of: 8 ug/mL (value in parenthesis) ([2]; C. glabrata)	MIC [2, 10]	MIC [2, 11]	Multiple of compound MIC to synergize fluconazole MIC to 2 ug/mL [2]	Multiple of compound MIC to synergize fluconazole MIC to 4 ug/mL [2]	Multiple of compound MIC to synergize fluconazole MIC to 8 ug/mL [2]	Concentration of Methylgene compound to synergize fluconazole MIC to 2 ug/mL ([2]; C. glabrata)	Concentration of Methylgene compound to synergize fluconazole MIC to 4 ug/mL ([2]; C. glabrata)	Concentration of Methylgene compound to synergize fluconazole MIC to 8 ug/mL ([2]; C. glabrata)	further results
OC(Cn1cncn1)(Cn1cncn1)c1ccc(F)cc1F [Fluconazole, reference compound]	2 µg/mL (≈ 6.53 µM)	4 µg/mL (≈ 13.1 µM)	4 µg/mL (≈ 13.1 µM)	8 µg/mL (≈ 26.1 µM)	0.25 µg/mL (≈ 0.816 µM)	1 µg/mL (≈ 3.27 µM)	–	–	–	–	–	–	–	–	–	–	–	–	–	–	MIC of fluconazole alone against both test isolates [1]: > 64 µg/mL; MIC ([2]; C. glabrata, this study, checkerboard assay, read-out: MIC of fluconazole alone against both test isolates): > 8 µg/mL; MIC range in parentheses below the comparator's MIC, Candida albicans [6]: (NA/0.25-1) ug/mL; MIC range in parentheses below the comparator's MIC, Candida parapsilosis ([7]; 24 hr): 0.5 to 4 µg/mL; MIC range in parentheses below the comparator's MIC, Candida parapsilosis ([7]; 48 hr): 1 to 4 µg/mL
CC[C@H](C)C[C@H](C)CCCCCCCCC(=O)N[C@H]1C[C@@H](O)[C@@H](NCCN)NC(=O)[C@@H]2[C@@H](O)CCN2C(=O)[C@H]([C@H](O)CCN)NC(=O)[C@H]([C@H](O)[C@@H](O)c2ccc(O)cc2)NC(=O)[C@@H]2C[C@@H](O)CN2C(=O)[C@H]([C@@H](C)O)NC1=O [Caspofungin, reference compound]	0.5 µg/mL (≈ 0.457 µM)	0.5 µg/mL (≈ 0.457 µM)	0.12 µg/mL (≈ 0.11 µM)	0.12 µg/mL (≈ 0.11 µM)	0.06 µg/mL (≈ 0.0549 µM)	0.06 µg/mL (≈ 0.0549 µM)	–	–	–	–	–	–	–	–	–	–	–	–	–	–	MIC range in parentheses below the comparator's MIC, Candida parapsilosis ([7]; 24 hr): 0.25 to 1 µg/mL
O=C(Cc1csc(CCCCc2ccccc2)n1)NO [Example 1, N-hydroxy-2-(2-(4-phenylbutyl)thiazol-4-yl)acetamide]	32 µg/mL (≈ 110 µM)	32 µg/mL (≈ 110 µM)	> 64 µg/mL	> 64 µg/mL	32 µg/mL (≈ 110 µM)	32 µg/mL (≈ 110 µM)	0.625	0.500	0.625	0.516	0.281	0.188	8 µg/mL	8 µg/mL	(½x)	(¼x)	(⅛x)	4 µg/mL	2 µg/mL	1 µg/mL	–
Nc1cccc(CCCCc2ccc(CC(=O)NO)cc2)c1 [Example 32, 2-(4-(4-(3-aminophenyl)butyl)phenyl)-N-hydroxyacetamide]	32 µg/mL (≈ 107 µM)	32 µg/mL (≈ 107 µM)	> 32 µg/mL	> 32 µg/mL	32 µg/mL (≈ 107 µM)	32 µg/mL (≈ 107 µM)	0.625	0.500	0.625	0.516	0.281	0.188	2 µg/mL	2 µg/mL	(½x)	(¼x)	(⅛x)	1 µg/mL	0.5 µg/mL	0.25 µg/mL	–
CN1CCC(C(=O)Nc2ccc(CCCCc3ccc(CC(=O)NO)cc3)cc2)CC1.Cl [Example 34, N-(4-(4-(4-(2-(hydroxyamino)-2-oxoethyl)phenyl)butyl)phenyl)-1-methylpiperidine-4-carboxamide hydrochloride]	> 64 µg/mL	> 64 µg/mL	> 64 µg/mL	> 64 µg/mL	> 64 µg/mL	> 64 µg/mL	0.375	0.375	0.625	0.266	0.156	0.188	8 µg/mL	8 µg/mL	(¼x)	(⅛x)	(⅛x)	2 µg/mL	1 µg/mL	1 µg/mL	–
COCCOCCOCCNS(=O)(=O)c1ccc(CCCCc2ccc(CC(=O)NO)cc2)cc1 [Example 12, N-hydroxy-2-(4-(4-(4-(N-(2-(2-(2-methoxyethoxy)ethoxy)ethyl)sulfamoyl)phenyl)butyl)phenyl)acetamide]	> 64 µg/mL	> 64 µg/mL	4 µg/mL (≈ 7.86 µM)	16 µg/mL (≈ 31.5 µM)	> 64 µg/mL	> 64 µg/mL	0.313	0.250	0.375	0.266	0.156	0.188	16 µg/mL	16 µg/mL	(¼x)	(⅛x)	(⅛x)	4 µg/mL	2 µg/mL	2 µg/mL	–
